Experimental data: paper PMC7070709, “Design, Synthesis, and In Vitro Evaluation of Hydroxybenzimidazole-Donepezil Analogues as Multitarget-Directed Ligands for the Treatment of Alzheimer’s Disease” (Molecules, 2020)
Where two headings read alike, the source gives them in different places.

What was measured:
[1] = cited from earlier work
Aβ1–42 with Cu(II) = Aβ1–42 with Cu(II) (Homo sapiens, UniProt P05067); experiment: Inhibition of Cu-induced Aβ1–42 aggregation (thioflavin T fluorescence); assay type: biochemical; details: copper 40 µM, Aβ1–42 40 μM, 24 h, 37 °C; for inhibition at 40 µM: inhibitor 40 µM
Procedure: (§1) The anti-amyloidogenic capacity of the compounds was also evaluated in vitro, in the absence and presence of Cu(II), based on the measurement of the fluorescence emission of Thioflavin T (ThT), a stain known by its Aβ fibril binding capacity. This binding interaction can be analyzed by fluorimetry, since the presence of ThT-fibrils increases the absorbance and the emission of the ThT dye, and it also induces red shifts on the absorbance (from 385 to 446 nm) and emission peaks (from 445 to 485 nm). All the measurements were performed after incubation (24 h, 37 °C) of the self-mediated and Cu^2+-induced Aβ aggregates in the presence/absence of the compounds under evaluation.
(§2) Herein, due to solubility problems of some compounds in the phosphate buffer (0.215 M, pH 8.0) of the working medium, the assays were carried out in the presence of 40 μM concentration of inhibitor and 20 μM in the case of compound 4, instead of 80 μM as previously reported. […] The activity dependence on ligand structural features may be mainly explained by the different ability for intercalation into the fibrils, as already assumed for other inhibitors. […] The data obtained for compounds 6 and 7 indicate that the presence of R1 = F, -NO2 substituents in the BIM have some small positive effect on the inhibition of Aβ aggregation.
(§3) The Aβ peptide was treated with 1,1,1,3,3,3-hexafluoropropan-2-ol (HFIP) and dissolved in a CH3CN/Na2CO3 (300 μM)/NaOH (250 μM) (48.3:48.3:4.3, v/v/v) mixture in order to have a stable stock solution, avoiding self-aggregation of Aβ1–42. Then, the prepared 500 μM solution was diluted at 40 μM in phosphate buffer (0.215 M, pH 8.0).
(§4) The solutions of the tested compounds were prepared in MeOH (1 mg/mL), being further diluted in phosphate buffer to a concentration of 480 μM. For copper-induced aggregation studies, a solution of CuCl2 240 μM was prepared from a stock standard solution (0.015 M). To perform the assays for the Aβ1–42 aggregation inhibition, a reported method, based on the fluorescence emission of thioflavin T (ThT), was followed. Aβ1–42 (40 μM) was incubated at 37 °C, for 24 h with or without Cu(II) (40 μM) in a phosphate buffer in presence or absence of the single ligand (40 μM and 20 μM for compound 4). Then, the samples were added to a 96-well plate with […] of 5 μM ThT in 50 mM glycine-NaOH (pH 8.5) buffer. Blank samples were prepared without the peptide for each concentration. The ThT fluorescence was measured at 446 nm (excitation) and 485 nm (emission). The inhibition percentage of aggregation was calculated by Equation (2), in which IFi and IF0 corresponded to the fluorescence intensities, in the presence and in the absence of the tested compound, subtracted of the fluorescence intensities due to the respective blanks.
(§5) The reported values were obtained as the mean ± SEM of duplicate of three different experiments.

[2] = target: T1, AChE (type VI-S, from electric eel) (Electrophorus electricus, UniProt O42275); experiment: AChE inhibition, adaptation of Ellman's method; assay type: biochemical; details: means of three independent experiments ± SD, read-out: TcAChE Inhibition IC50
T1 construct: purchased type VI-S
Procedure: The inhibition of AChE by the DNP-BIM hybrids herein studied was assayed by using a variation of Ellman´s test and the IC50 values obtained are included in Table 2. […]. An adaptation of the Ellman´s method, previously described, was used to measure the acetylcholinesterase inhibitory activity. The assay solution contained 374 µL of 4-(2-hydroxyethyl)-1-piperazineethanesulfonic acid (HEPES) buffer (50 mM, pH 8.0), 476 µL of 5,5’-dithiobis-(2-nitrobenzoic acid) (DTNB, 3 mM), a variable volume (10–50 µL) of the stock solution of each compound in methanol (1 mg/mL), 25 µL of AChE (type VI-S, from electric eel) stock solution, and the necessary amount of methanol to obtain 0.925 mL of sample mixture in a 1 mL cuvette. The samples were incubated for 15 min and then 75 µL of acetylthiocholine iodide (AChI) solution (16 mM) was added. The reaction was monitored for 5 min at 405 nm. Assays were run with a blank containing all the components except AChE, which was replaced by HEPES buffer. The rates of the reaction were calculated as well as the enzyme activity. A control reaction was carried out using methanol as a sample solution and it was considered as 100% activity.
The inhibition curves were obtained by plotting the percentage of enzymatic inhibition versus inhibitor concentration and a calibration curve was got from which the linear regression parameters were obtained.

Aβ1–42 = Aβ1–42 (Homo sapiens, UniProt P05067); experiment: Inhibition of self-mediated Aβ1–42 aggregation (thioflavin T fluorescence); assay type: biochemical; details: Aβ1–42 40 μM, 24 h, 37 °C, read-out: Aβ1–42 Aggregation Inhibition, Self-Induced; for inhibition at 40 µM: inhibitor 40 µM
Procedure: as §1, §2, §3, §4, §5

[3] = Zn(II) chelation by potentiometry; assay type: physicochemical; details: for pH at which metal complexation starts, Zn(II): formation of MHL species, CL = 6.7 × 10^−4 M, 1:2 M(II)/L; for pZn (pM = −log[M]): pH 7.4, CL/CM = 10, CM = 10^−6 M
From the text: (§6) The metal chelating ability of hybrids 7 and 12, due to the BIM bidentate unity with (N,O) coordination mode, was studied by potentiometry. Figure 3A,B show a change in the deprotonation profile of the ligand titration curves due to the presence of the metal ions. In fact, the curves for the Cu(II)/L systems lie well below that of the ligand, while for the Zn(II)/L systems stay under for a > −1 (compound 7) or a > 0 (compound 12), thus supporting the formation of 1:1 and 1:2 M/L ratio complexes with the deprotonated and mono-protonated forms of the ligand and with relative metal dependent stability order (Cu > Zn). Table 1 contains the equilibrium models obtained from the fitting analysis of the potentiometric curves by program Hyperquad. In these equilibrium models, which the coordination core of the compounds integrates the bidentate (N,O) BIM moiety, MHL and MH2L2 correspond to species with the ligand containing one protonated nitrogen atom at the piperazine moiety, ML and ML2 correspond to complexes involving the completely deprotonated form of the ligand while MH-1L2 are mixed ligand-hydroxo metal complexes.
(§7) Solutions: the aqueous copper (CuCl2, 0.015 M) and zinc (ZnCl2, 0.0156 M) stock solutions for potentiometric equilibrium studies were prepared from 1000 ppm standards (Titrisol) and their metal content was evaluated by atomic absorption. The titrant solution (0.1 M KOH) was obtained from a carbonate-free commercial concentrate (Titrisol) and standardized by potentiometric titration with potassium hydrogen phthalate. The titrant solution was discarded whenever the percentage of carbonate (Gran’s method) was about 0.5% of the total amount of base.
(§8) Measurements: compounds 7 and 12 were titrated in 50% (w/w) DMSO/H2O medium, at T = 25.0 ± 0.1 °C and ionic strength (I) 0.1 M KCl, using 0.1 M KOH as titrant. Both glass and Ag/AgCl reference electrodes were previously conditioned in DMSO/H2O mixtures with increasing amounts of DMSO and the response of the glass electrode was controlled by strong acid–strong base (HCl/KOH) calibrations with the determination of the Nernst parameters by Gran’s method. […] All titrations were performed in duplicate and under the stated experimental conditions the pKw value (13.6) was determined and subsequently used in the computations. The stepwise protonation constant of the ligand, Ki = [HiL]/([Hi–1L][H]), and the overall metal–complex stability constants, βMmHhLl = [MmHhLl]/([M]^m[H]^h[L]^l), were calculated by fitting the potentiometric titration data with Hyperquad 2008 [26]. The metal hydrolysis constants were determined under the defined experimental conditions (I = 0.1 M KCl, 50% w/w DMSO/H2O, T = 25.0 ± 0.1 °C) and the following values of stability constants were included in the fitting of experimental data towards the equilibrium models related to the Cu^2+/L and Zn^2+/L systems: log βCu2H−2 = −9.99; log βZnH−2 = −14.79, log βZnH−3 = −23.48. Species distribution curves were plotted with the Hyss program.

[4] = Cu(II) chelation by potentiometry; assay type: physicochemical; details: for pH at which metal complexation starts, Cu(II): formation of MHL species, CL = 6.7 × 10^−4 M, 1:2 M(II)/L; for pCu (pM = −log[M]): pH 7.4, CL/CM = 10, CM = 10^−6 M; for Kd: pH 7.4, read-out: conditional dissociation constant (K´d) for the copper complex
From the text: as §6, §7, §8

[5] = global formation constant, 50% w/w DMSO/water, I = 0.1 M KCl, 25.0 °C

Aβ1–42, sequence (P05067 672-713): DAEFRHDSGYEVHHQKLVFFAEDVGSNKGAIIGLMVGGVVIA
Aβ1–42 with Cu(II), sequence (P05067 672-713): as above
T1 sequence (O42275 24-633): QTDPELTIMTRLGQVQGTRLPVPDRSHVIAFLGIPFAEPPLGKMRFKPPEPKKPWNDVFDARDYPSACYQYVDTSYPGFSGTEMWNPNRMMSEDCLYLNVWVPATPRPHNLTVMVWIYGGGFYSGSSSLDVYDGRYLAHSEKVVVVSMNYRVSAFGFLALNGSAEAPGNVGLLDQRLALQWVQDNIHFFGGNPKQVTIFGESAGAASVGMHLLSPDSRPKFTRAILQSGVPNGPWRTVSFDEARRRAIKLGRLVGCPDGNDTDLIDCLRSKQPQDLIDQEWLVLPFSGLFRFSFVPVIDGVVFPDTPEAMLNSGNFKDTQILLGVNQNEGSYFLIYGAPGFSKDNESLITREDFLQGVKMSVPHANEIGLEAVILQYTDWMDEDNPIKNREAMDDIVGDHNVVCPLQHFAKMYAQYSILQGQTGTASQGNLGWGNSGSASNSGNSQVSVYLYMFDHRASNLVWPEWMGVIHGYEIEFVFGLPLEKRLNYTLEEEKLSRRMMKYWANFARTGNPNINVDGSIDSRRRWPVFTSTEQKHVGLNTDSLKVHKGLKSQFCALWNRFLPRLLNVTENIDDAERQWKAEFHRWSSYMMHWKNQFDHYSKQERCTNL

## O=[N+]([O-])c1ccc(O)cc1 [4-nitrophenol]
[1]; standard group
  log K (protonation constant): 7.15

## O=C(NCC1CCCN(Cc2ccccc2)C1)c1ccc2nc(-c3ccccc3O)[nH]c2c1 (stereo not drawn) [Compound 3, N-((1-Benzylpiperidin-3-yl)methyl)-2-(2-hydroxyphenyl)-1H-benzo[d]imidazole-6-carboxamide]
Aβ1–42 with Cu(II)
  inhibition at 40 µM: 81.8%
[2]
  IC50: 5 ± 0.5 µM
Aβ1–42
  inhibition at 40 µM: 71.4%

## O=C(NCC1CCCCN1Cc1ccccc1)c1ccc2nc(-c3ccccc3O)[nH]c2c1 (stereo not drawn) [Compound 4, N-((1-Benzylpiperidin-2-yl)methyl)-2-(2-hydroxyphenyl)-1H-benzo[d]imidazole-6-carboxamide]
Aβ1–42 with Cu(II); inhibitor 20 µM
  inhibition at 20 µM: 55.9%
[2]
  IC50: 14 ± 1 µM
Aβ1–42; inhibitor 20 µM
  inhibition at 20 µM: 47.6%

## O=C(NCC1CCN(Cc2ccccc2)CC1)c1ccc2[nH]c(-c3cc(F)ccc3O)nc2c1 [Compound 6, N-((1-Benzylpiperidin-4-yl)methyl)-2-(2-hydroxy-5-fluorophenyl)-1H-benzo[d]imidazole-5-carboxamide]
Aβ1–42 with Cu(II)
  inhibition at 40 µM: 61%
[2]
  IC50: 1.67 ± 0.05 µM
Aβ1–42
  inhibition at 40 µM: 51.2%

## O=C(NCCN1CCN(Cc2ccccc2)CC1)c1ccc2[nH]c(-c3cc([N+](=O)[O-])ccc3O)nc2c1 [Compound 7, N-(2-(4-Benzylpiperazin-1-yl)ethyl)-2-(2-hydroxy-5-nitrophenyl)-1H-benzo[d]imidazole-5-carboxamide]
Aβ1–42 with Cu(II)
  inhibition at 40 µM: 71.4%
[3]
  pH at which metal complexation starts, Zn(II): 3.5–4
  pZn (pM = −log[M]): 6.5
[3]; [5]
  log βZnmHhLl (101), ZnL: 4.98(8)
  log βZnmHhLl (102), ZnL2: 10.22(8)
  log βZnmHhLl (111), ZnHL: 10.40(8)
  log βZnmHhLl (122), ZnH2L2: 21.92(7)
[2]
  IC50: 21 ± 3 µM
[4]
  pH at which metal complexation starts, Cu(II): around 2
  pCu (pM = −log[M]): 10.9
  Kd: 0.08 µM
[4]; [5]
  log βCumHhLl (1–12), CuH-1L2: 7.30(9)
  log βCumHhLl (102), CuL2: 15.27(8)
  log βCumHhLl (111), CuHL: 14.23(5)
  log βCumHhLl (122), CuH2L2: 26.90(7)
Aβ1–42
  inhibition at 40 µM: 57.6%

## O=C(NCCN1CCN(Cc2ccccc2)CC1)c1ccc2[nH]c(-c3cc(F)ccc3O)nc2c1 [Compound 8, N-(2-(4-Benzylpiperazin-1-yl)ethyl)-2-(2-hydroxy-5-fluorophenyl)-1H-benzo[d]imidazole-5-carboxamide]
Aβ1–42 with Cu(II)
  inhibition at 40 µM: 55.2%
[2]
  IC50: 4.3 ± 0.3 µM
Aβ1–42
  inhibition at 40 µM: 50.6%

## O=C(NCCN1CCN(Cc2ccccc2[N+](=O)[O-])CC1)c1ccc2nc(-c3ccccc3O)[nH]c2c1 [Compound 11, 2-(2-Hydroxyphenyl)-N-(2-(4-(2-nitrobenzyl)piperazin-1-yl)ethyl)-1H-benzo[d]imidazole-6-carboxamide]
Aβ1–42 with Cu(II)
  inhibition at 40 µM: 43.5%
[2]
  IC50: 20 ± 1 µM
Aβ1–42
  inhibition at 40 µM: 22.7%

## O=C(NCCN1CCN(Cc2ccccn2)CC1)c1ccc2nc(-c3ccccc3O)[nH]c2c1 [Compound 12, 2-(2-Hydroxyphenyl)-N-(2-(4-(pyridin-2-ylmethyl)piperazin-1-yl)ethyl)-1H-benzo[d]imidazole-6-carboxamide]
Aβ1–42 with Cu(II)
  inhibition at 40 µM: 44.4%
[3]
  pH at which metal complexation starts, Zn(II): 3.5–4
  pZn (pM = −log[M]): 6.3
[3]; [5]
  log βZnmHhLl (1–12), ZnH-1L2: 2.07(7)
  log βZnmHhLl (101), ZnL: 6.26(5)
  log βZnmHhLl (102), ZnL2: 10.54(5)
  log βZnmHhLl (111), ZnHL: 12.58(4)
[2]
  IC50: > 100 µM
[4]
  pH at which metal complexation starts, Cu(II): around 2
  pCu (pM = −log[M]): 10.4
  Kd: 0.000365 µM
[4]; [5]
  log βCumHhLl (1–12), CuH-1L2: 7.88(7)
  log βCumHhLl (101), CuL: 11.18(5)
  log βCumHhLl (102), CuL2: 17.14(7)
  log βCumHhLl (111), CuHL: 16.26(3)
Aβ1–42
  inhibition at 40 µM: 30.1%

## c1c[nH]cn1 [imidazole]
[1]; standard group
  log K (protonation constant): 6.95

## Oc1ccccc1 [phenol]
[1]; standard group
  log K (protonation constant): 9.98

## c1ccncc1 [pyridine]
[1]; in water
  log K (protonation constant): 5.24
